Source: the supplement of paper PMC10307832

How the values were obtained:
Experiment in all cases: relative viability (nuclei count vs DMSO), 5 days (fraction); higher = more cells survive
NVP-TAE684 + Pemetrexed = compound: COc1cc(N2CCC(N3CCN(C)CC3)CC2)ccc1Nc1ncc(Cl)c(Nc2ccccc2S(=O)(=O)C(C)C)n1 [NVP-TAE684] + Nc1nc2[nH]cc(CCc3ccc(C(=O)N[C@@H](CCC(=O)O)C(=O)O)cc3)c2c(=O)[nH]1 [Pemetrexed] (partner 0.2 µM)
Outline: (§1)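 Medians of duplicate plates are given as relative viability. That measure is the nuclei count in treated wells divided by the count in vehicle wells. Counts were taken on 4× images of lung cancer cell lines in 1536-well plates, 5 days after pin-tool dosing the day after seeding with one drug alone or a fixed anchor-drug dose plus five library-drug doses (not always all listed) in √10 steps.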

NVP-TAE684 + Vorinostat = compound: COc1cc(N2CCC(N3CCN(C)CC3)CC2)ccc1Nc1ncc(Cl)c(Nc2ccccc2S(=O)(=O)C(C)C)n1 [NVP-TAE684] + O=C(CCCCCCC(=O)Nc1ccccc1)NO [Vorinostat] (partner 1 µM)
Outline: as §1

CUDC-101 + Olaparib = compound: C#Cc1cccc(Nc2ncnc3cc(OC)c(OCCCCCCC(=O)NO)cc23)c1 [CUDC-101] + O=C(c1cc(Cc2n[nH]c(=O)c3ccccc23)ccc1F)N1CCN(C(=O)C2CC2)CC1 [Olaparib] (partner 8 µM)
Outline: as §1

CUDC-101 + Crizotinib = compound: C#Cc1cccc(Nc2ncnc3cc(OC)c(OCCCCCCC(=O)NO)cc23)c1 [CUDC-101] + C[C@@H](Oc1cc(-c2cnn(C3CCNCC3)c2)cnc1N)c1c(Cl)ccc(F)c1Cl [Crizotinib] (partner 1 µM)
Outline: as §1

| Cell Line | relative viability (NVP-TAE684 + Pemetrexed; first compound 0.2 µM) | relative viability (NVP-TAE684 + Pemetrexed; first compound 0.6325 µM) | relative viability (NVP-TAE684 + Pemetrexed; first compound 2 µM) | relative viability (NVP-TAE684 + Vorinostat; first compound 0.2 µM) | relative viability (NVP-TAE684 + Vorinostat; first compound 0.6325 µM) | relative viability (NVP-TAE684 + Vorinostat; first compound 2 µM) | relative viability (CUDC-101 + Olaparib; first compound 0.01 µM) | relative viability (CUDC-101 + Olaparib; first compound 0.03162 µM) | relative viability (CUDC-101 + Olaparib; first compound 0.1 µM) | relative viability (CUDC-101 + Olaparib; first compound 0.3162 µM) | relative viability (CUDC-101 + Olaparib; first compound 1 µM) | relative viability (CUDC-101 + Crizotinib; first compound 0.01 µM) | relative viability (CUDC-101 + Crizotinib; first compound 0.03162 µM) | relative viability (CUDC-101 + Crizotinib; first compound 0.1 µM) | relative viability (CUDC-101 + Crizotinib; first compound 0.3162 µM) | relative viability (CUDC-101 + Crizotinib; first compound 1 µM) |
| --- | --- | --- | --- | --- | --- | --- | --- | --- | --- | --- | --- | --- | --- | --- | --- | --- |
| NCI-H1650 | 0.382 | 0.35 | 0.353 | 0.573 | 0.561 | 0.502 | 0.926 | 0.667 | 0.744 | 0.867 | 0.578 | 0.859 | 0.782 | 0.942 | 0.796 | 0.595 |
| NCI-H1651 | 0.594 | 0.566 | 0.565 | 0.635 | 0.537 | 0.508 | 0.194 | 0.209 | 0.192 | 0.2 | 0.182 | 0.91 | 0.803 | 0.91 | 0.934 | 0.813 |
| NCI-H1666 | 0.985 | 0.796 | 0.77 | 0.99 | 0.964 | 0.877 | 0.777 | 0.741 | 0.717 | 0.751 | 0.713 | 0.91 | 0.969 | 1.15 | 1.09 | 0.791 |
| NCI-H1734 | 0.47 | 0.437 | 0.348 | 0.846 | – | 0.631 | 0.663 | 0.606 | 0.59 | 0.697 | 0.499 | 0.778 | 0.699 | 0.566 | 0.583 | 0.397 |
| NCI-H1755 | 0.394 | 0.583 | 0.384 | 0.768 | 0.744 | 0.635 | 0.873 | 0.933 | 0.904 | 0.853 | 0.753 | 0.81 | 0.896 | 0.828 | 0.942 | 0.743 |
| NCI-H1915 | 0.537 | 0.463 | 0.472 | 0.579 | 0.547 | 0.459 | 0.25 | 0.232 | 0.225 | 0.229 | 0.164 | 0.982 | 0.941 | 0.889 | 0.837 | 0.627 |
| NCI-H1944 | 0.705 | 0.585 | 0.631 | 0.637 | 0.475 | 0.486 | 0.4 | 0.349 | 0.353 | 0.333 | 0.235 | 1.07 | 1.09 | 0.954 | 0.918 | 0.491 |
| NCI-H1975 | 0.297 | 0.283 | 0.236 | 0.694 | 0.666 | 0.263 | 0.853 | 0.737 | 0.818 | 0.859 | 0.745 | 1.05 | 1.02 | 0.964 | 1.1 | 0.872 |
